# Data: ChEMBL document CHEMBL2146358, “Discovery of amide based fibrates as possible antidyslipidemic and antioxidant agents” (2012)
# Columns and labels:
# Type in all cases: functional
# Rattus norvegicus [1] = test: Antidyslipidemic activity in Triton fed hyperlipidemic Charles Foster rat assessed as reduction in plasma total cholesterol at 100 mg/kg, po; design: scale not given: the % may be the effect or the level left
# Rattus norvegicus [2] = test: Antidyslipidemic activity in Triton fed hyperlipidemic Charles Foster rat assessed as reduction in plasma phospholipids at 100 mg/kg, po; design: scale not given: the % may be the effect or the level left
# Rattus norvegicus [3] = test: Antidyslipidemic activity in Triton fed hyperlipidemic Charles Foster rat assessed as reduction in plasma triglyceride level at 100 mg/kg, po; design: scale not given: the % may be the effect or the level left
# Rattus norvegicus [4] = test: Antidyslipidemic activity in Triton fed hyperlipidemic Charles Foster rat assessed as increase in post heparin lipoprotein lipase activity by measuring free fatty acids formation rate per ml of plasma at 100 mg/kg, po
# Rattus norvegicus [5] = species on record: Rattus norvegicus; test: Increase in lipoprotein lipase activity in Triton fed hyperlipidemic Charles Foster rat plasma assessed as free fatty acids formation rate per ml of plasma relative to untreated Triton control; design: concentration or dose not given beside the values
# [6] = Antioxidant activity assessed as inhibition of superoxide anion radical generation at 200 ug/ml by spectrophotometry
# [7] = Antioxidant activity assessed as inhibition of hydroxyl radical generation at 200 ug/ml by spectrophotometry
# [8] = Antioxidant activity in microsomes assessed as inhibition of lipid peroxidation by measuring MDA level at 200 ug/ml by spectrophotometry based TBARS method
SMILES,Activity (Rattus norvegicus [1]),Activity (Rattus norvegicus [2]),Activity (Rattus norvegicus [3]),Activity (Rattus norvegicus [4]),Activity (Rattus norvegicus [5]),inhibition [6],inhibition [7],inhibition [8]
CCOC(=O)C(C)(C)Oc1ccc(NC(=O)COc2ccccc2C(C)CC)cc1 (stereo not drawn),7%,10%,6%,14%,–,–,–,–
CCOC(=O)C(C)Oc1ccc(NC(=O)COc2ccccc2C(C)CC)cc1 (stereo not drawn),24%,23%,24%,15%,16%,25%,25%,25%
CCOC(=O)CCCOc1ccc(NC(=O)COc2ccccc2Cl)cc1,9%,6%,8%,12%,–,–,–,–
CCOC(=O)C(CC)Oc1ccc(NC(=O)COc2ccccc2C(C)CC)cc1 (stereo not drawn),10%,9%,9%,5%,–,–,–,–
CCOC(=O)C(C)Oc1ccc(NC(=O)CSc2ccc3ccccc3c2)cc1 (stereo not drawn),26%,24%,28%,24%,26%,31%,28%,35%
CCOC(=O)C(CC)Oc1ccc(NC(=O)COc2ccc(Cl)cc2Cl)cc1 (stereo not drawn),2%,3%,5%,4%,–,–,–,–
Cc1c(C)c2c(c(C)c1O)CC[C@@](C)(CCC[C@H](C)CCC[C@H](C)CCCC(C)C)O2,–,–,–,–,–,–,–,49%
Oc1ncnc2[nH]ncc12,–,–,–,–,–,41%,–,–
CCOC(=O)CCCOc1ccc(NC(=O)COc2ccccc2C(C)CC)cc1 (stereo not drawn),9%,10%,11%,13%,–,–,–,–
OC[C@@H](O)[C@@H](O)[C@H](O)[C@H](O)CO,–,–,–,–,–,–,41%,–
CCOC(=O)CCCOc1ccc(NC(=O)COc2ccc(Cl)cc2Cl)cc1,9%,8%,7%,12%,–,–,–,–
CCOC(=O)COc1ccc(NC(=O)COc2ccccc2Cl)cc1,6%,9%,6%,9%,–,–,–,–
CCOC(=O)C(C)(C)Oc1ccc(NC(=O)COc2ccc3ccccc3c2)cc1,25%,24%,27%,23%,22%,30%,22%,22%
CCOC(=O)COc1ccc(NC(=O)COc2ccc3ccccc3c2)cc1,14%,14%,11%,15%,–,–,–,–
CCOC(=O)C(C)(C)Oc1ccc(NC(=O)COc2ccc(Cl)cc2Cl)cc1,8%,4%,13%,9%,–,–,–,–
CCOC(=O)CCCOc1ccc(NC(=O)COc2ccc3ccccc3c2)cc1,21%,19%,22%,17%,–,27%,25%,29%
CCOC(=O)C(C)Oc1ccc(NC(=O)COc2ccc(Cl)cc2Cl)cc1 (stereo not drawn),8%,7%,10%,10%,–,–,–,–
CCOC(=O)C(C)Oc1ccc(NC(=O)COc2ccc3ccccc3c2)cc1 (stereo not drawn),23%,25%,26%,26%,24%,25%,25%,22%
CCOC(=O)C(CC)Oc1ccc(NC(=O)CSc2ccc3ccccc3c2)cc1 (stereo not drawn),6%,4%,5%,7%,–,–,–,–
Cc1ccc(C)c(OCCCC(C)(C)C(=O)O)c1 [GEMFIBROZIL],31%,33%,33%,31%,30%,–,–,–
CCOC(=O)C(CC)Oc1ccc(NC(=O)COc2ccc3ccccc3c2)cc1 (stereo not drawn),12%,9%,13%,12%,–,–,–,–
CCOC(=O)C(C)Oc1ccc(NC(=O)COc2ccccc2Cl)cc1 (stereo not drawn),25%,26%,25%,23%,21%,33%,26%,26%
